Measurements published in ChEMBL document CHEMBL3390848, “Affinity selection and sequence-activity relationships of HIV-1 membrane fusion inhibitors directed at the drug-resistant variants” (Medchemcomm, 2010).
Residues, ends and D or L forms follow the SMILES beside them.

How the values were obtained:
[1] = test system: Human immunodeficiency virus 1; test: Binding affinity to HIV1 His-tagged N-terminal heptad repeat of envelope glycoprotein gp41 assessed as recovery of N36-drug complex at 10 uM after 2 hrs by LC-MS analysis
[2] = test system: Human immunodeficiency virus 1; test: Binding affinity to HIV1 His-tagged N-terminal heptad repeat of envelope glycoprotein gp41 assessed as recovery of N36-drug complex at 6 uM after 2 hrs by LC-MS analysis
[3] = test system: Human immunodeficiency virus 1; test: Binding affinity to HIV1 His-tagged N-terminal heptad repeat of envelope glycoprotein gp41 assessed as recovery of N36-drug complex at 1 uM after 2 hrs by LC-MS analysis
[4] = test system: Human immunodeficiency virus 1; test: Binding affinity to HIV1 His-tagged N-terminal heptad repeat of envelope glycoprotein gp41 assessed as recovery of N36-drug complex at 0.6 uM after 2 hrs by LC-MS analysis
[5] = test system: Human immunodeficiency virus 1; test: Antiviral activity against HIV1 NL4-3 harboring gp41 D36G mutant infected in human HeLa cells expressing CD4-LTR-beta-gal assessed as inhibition of viral replication after 48 hrs by MAGI assay; type: functional, organism-based
[6] = test system: Human immunodeficiency virus 1; test: Thermal stability of HIV1 envelope glycoprotein gp41 His-tagged N-terminal heptad repeat N36-drug complex assessed as thermal unfolding transition state by measuring molar ellipticity at 4 to 90 degC by circular dichroic spectra analysis
[7] = test system: Human immunodeficiency virus 1; test: Binding affinity to HIV1 His-tagged N-terminal heptad repeat of envelope glycoprotein gp41 assessed as recovery of N54-drug complex after 2 hrs by LC-MS analysis; design: concentration or dose not given beside the values
[8] = test system: Human immunodeficiency virus 1; test: Thermal stability of HIV1 envelope glycoprotein gp41 His-tagged N-terminal heptad repeat N54-drug complex assessed as thermal unfolding transition state by measuring molar ellipticity at 4 to 90 degC by circular dichroic spectra analysis
[9] = test system: Envelope glycoprotein gp160 (Human immunodeficiency virus 1), Q72502 [V38A]; test: Binding affinity to HIV1 His-tagged N-terminal heptad repeat of envelope glycoprotein gp41 assessed as recovery of N54 V38A mutant-drug complex after 2 hrs by LC-MS analysis; design: concentration or dose not given beside the values
[10] = test system: Human immunodeficiency virus 1; test: Binding affinity to HIV1 His-tagged N-terminal heptad repeat of envelope glycoprotein gp41 assessed as recovery of N54 N43D mutant-drug complex after 2 hrs by LC-MS analysis; design: concentration or dose not given beside the values
[11] = test system: Envelope glycoprotein gp160 (Human immunodeficiency virus 1), Q72502 [V38A]; test: Thermal stability of HIV1 envelope glycoprotein gp41 His-tagged N-terminal heptad repeat N54 V38A mutant-drug complex assessed as thermal unfolding transition state by measuring molar ellipticity at 4 to 90 degC by circular dichroic spectra analysis
[12] = test system: Human immunodeficiency virus 1; test: Thermal stability of HIV1 envelope glycoprotein gp41 His-tagged N-terminal heptad repeat N54 N43D mutant-drug complex assessed as thermal unfolding transition state by measuring molar ellipticity at 4 to 90 degC by circular dichroic spectra analysis

What does the source list for `CC[C@H](C)[C@H](NC(=O)[C@H](CC(C)C)NC(=O)[C@H](CCC(=O)O)NC(=O)[C@H](CCC(=O)O)NC(=O)[C@@H](NC(=O)[C@H](CCCCN)NC(=O)[C@H](CCCCN)NC(=O)[C@@H](NC(=O)[C@H](Cc1ccc(O)cc1)NC(=O)[C@H](CCC(=O)O)NC(=O)[C@H](CCC(=O)O)NC(=O)[C@@H](NC(=O)[C@H](CCCCN)NC(=O)[C@H](CCCCN)NC(=O)[C@H](CC(=O)O)NC(=O)[C@H](Cc1c[nH]c2ccccc12)NC(=O)[C@H](CCC(=O)O)NC(=O)[C@H](CCC(=O)O)NC(=O)[C@H](Cc1c[nH]c2ccccc12)NC(C)=O)[C@@H](C)CC)[C@@H](C)O)[C@@H](C)CC)C(=O)N[C@@H](CCCCN)C(=O)N[C@@H](CCCCN)C(=O)N[C@@H](Cc1ccc(O)cc1)C(=O)N[C@@H](CCC(=O)O)C(=O)N[C@@H](CCC(=O)O)C(=O)N[C@@H](CCC(N)=O)C(=O)N[C@@H](CCC(N)=O)C(=O)N[C@@H](CCCCN)C(=O)N[C@@H](CCCCN)C(=O)N[C@@H](CC(N)=O)C(=O)N[C@@H](CCC(=O)O)C(=O)N[C@@H](CCC(=O)O)C(=O)N[C@@H](CCC(=O)O)C(=O)N[C@@H](CC(C)C)C(=O)N[C@@H](CCCCN)C(=O)N[C@@H](CCCCN)C(N)=O` (Ac-WEEWDKKIEEYTKKIEELIKKYEEQQKKNEEELKK-NH2)?
Activity [1]: 0.5%; Activity [2]: 0.4%; Activity [3]: 2.3%; Activity [4]: 5.9%; EC50 [5]: 1.9 nM; Tm [6]: 68 °C

For `CC[C@H](C)[C@H](NC(=O)[C@H](CC(C)C)NC(=O)[C@H](CCC(=O)O)NC(=O)[C@H](CCC(=O)O)NC(=O)[C@@H](NC(=O)[C@H](CC(C)C)NC(=O)[C@H](CO)NC(=O)[C@@H](NC(=O)[C@H](Cc1ccc(O)cc1)NC(C)=O)[C@@H](C)O)[C@@H](C)CC)C(=O)N[C@@H](CCCCN)C(=O)N[C@@H](CCCCN)C(=O)N[C@@H](C)C(=O)N[C@@H](CCC(=O)O)C(=O)N[C@@H](CCC(=O)O)C(=O)N[C@@H](CCC(N)=O)C(=O)N[C@@H](CCC(N)=O)C(=O)N[C@@H](CCCCN)C(=O)N[C@@H](CCCCN)C(=O)N[C@@H](CC(N)=O)C(=O)N[C@@H](CCC(=O)O)C(=O)N[C@@H](CCC(=O)O)C(=O)N[C@@H](CCC(=O)O)C(=O)N[C@@H](CC(C)C)C(=O)N[C@@H](CCCCN)C(=O)N[C@@H](CCCCN)C(=O)N[C@@H](CC(C)C)C(=O)N[C@@H](CCC(=O)O)C(=O)N[C@@H](CCC(=O)O)C(=O)N[C@@H](Cc1c[nH]c2ccccc12)C(=O)N[C@@H](C)C(=O)N[C@@H](CCCCN)C(=O)N[C@@H](CCCCN)C(=O)N[C@@H](Cc1c[nH]c2ccccc12)C(=O)N[C@@H](CC(N)=O)C(=O)N[C@@H](Cc1c[nH]c2ccccc12)C(=O)N[C@@H](Cc1ccccc1)C(N)=O` (Ac-YTSLIEELIKKAEEQQKKNEEELKKLEEWAKKWNWF-NH2), which EC50 [5] is on record?
The EC50 was 0.3 nM.

And the Activity [7]?
The Activity was 10%.

What about the Tm [8] of the same molecule?
Its Tm is 80.1 °C.

And the Activity [9]?
The Activity was 10%.

And the Activity [10]?
The Activity was 10.2%.

And the Tm [11]?
The Tm was 64.6 °C.

What about the Tm [12] of the same molecule?
Its Tm is 71.9 °C.

For `CC[C@H](C)[C@H](NC(=O)[C@H](CC(C)C)NC(=O)[C@H](CCC(=O)O)NC(=O)[C@H](CCC(=O)O)NC(=O)[C@@H](NC(=O)[C@H](CC(C)C)NC(=O)[C@H](CO)NC(=O)[C@@H](NC(=O)[C@H](Cc1ccc(O)cc1)NC(C)=O)[C@@H](C)O)[C@@H](C)CC)C(=O)N[C@@H](CCCCN)C(=O)N[C@@H](CCCCN)C(=O)N[C@@H](CC(C)C)C(=O)N[C@@H](CCC(=O)O)C(=O)N[C@@H](CCC(=O)O)C(=O)N[C@@H](CCC(N)=O)C(=O)N[C@@H](CCC(N)=O)C(=O)N[C@@H](CCCCN)C(=O)N[C@@H](CCCCN)C(=O)N[C@@H](CC(N)=O)C(=O)N[C@@H](CCC(=O)O)C(=O)N[C@@H](CCC(=O)O)C(=O)N[C@@H](CCC(=O)O)C(=O)N[C@@H](CC(C)C)C(=O)N[C@@H](CCCCN)C(=O)N[C@@H](CCCCN)C(=O)N[C@@H](CC(C)C)C(=O)N[C@@H](CCC(=O)O)C(=O)N[C@@H](CCC(=O)O)C(=O)N[C@@H](Cc1c[nH]c2ccccc12)C(=O)N[C@@H](C)C(=O)N[C@@H](CCCCN)C(=O)N[C@@H](CCCCN)C(=O)N[C@@H](Cc1c[nH]c2ccccc12)C(=O)N[C@@H](CC(N)=O)C(=O)N[C@@H](Cc1c[nH]c2ccccc12)C(=O)N[C@@H](Cc1ccccc1)C(N)=O` (Ac-YTSLIEELIKKLEEQQKKNEEELKKLEEWAKKWNWF-NH2), which EC50 [5] is on record?
Its EC50 is 0.4 nM.

What about the Activity [7] of the same molecule?
Its Activity is 10.4%.

What about the Tm [8] of the same molecule?
The Tm was 77.6 °C.

And the Activity [9]?
Its Activity is 10.1%.

And the Activity [10]?
The Activity was 10.8%.

What about the Tm [11] of the same molecule?
The Tm was 57.5 °C.

What about the Tm [12] of the same molecule?
Its Tm is 74 °C.

With `CC[C@H](C)[C@H](NC(=O)[C@H](CC(C)C)NC(=O)[C@H](CO)NC(=O)[C@@H](NC(=O)[C@H](Cc1ccc(O)cc1)NC(C)=O)[C@@H](C)O)C(=O)N[C@@H](CCC(=O)O)C(=O)N[C@@H](CCC(=O)O)C(=O)N[C@@H](CC(C)C)C(=O)N[C@H](C(=O)N[C@@H](CCCCN)C(=O)N[C@@H](CCCCN)C(=O)N1CCC[C@H]1C(=O)N[C@@H](CCC(=O)O)C(=O)N[C@@H](CCC(=O)O)C(=O)N[C@@H](CCC(N)=O)C(=O)N[C@@H](CCC(N)=O)C(=O)N[C@@H](CCCCN)C(=O)N[C@@H](CCCCN)C(=O)N[C@@H](CC(N)=O)C(=O)N[C@@H](CCC(=O)O)C(=O)N[C@@H](CCC(=O)O)C(=O)N[C@@H](CCC(=O)O)C(=O)N[C@@H](CC(C)C)C(=O)N[C@@H](CCCCN)C(=O)N[C@@H](CCCCN)C(=O)N[C@@H](CC(C)C)C(=O)N[C@@H](CCC(=O)O)C(=O)N[C@@H](CCC(=O)O)C(=O)N[C@@H](Cc1c[nH]c2ccccc12)C(=O)N[C@@H](C)C(=O)N[C@@H](CCCCN)C(=O)N[C@@H](CCCCN)C(=O)N[C@@H](Cc1c[nH]c2ccccc12)C(=O)N[C@@H](CC(N)=O)C(=O)N[C@@H](Cc1c[nH]c2ccccc12)C(=O)N[C@@H](Cc1ccccc1)C(N)=O)[C@@H](C)CC` (Ac-YTSLIEELIKKPEEQQKKNEEELKKLEEWAKKWNWF-NH2) as the molecule, how does the EC50 [5] read?
The EC50 was 44 nM.

And the Activity [7]?
Its Activity is 0.2%.

And the Tm [8]?
Its Tm is 55.5 °C.

And the Activity [9]?
The Activity was 0%.

What about the Activity [10] of the same molecule?
Its Activity is 0.3%.

And the Tm [11]?
The Tm was 49.7 °C.

And the Tm [12]?
Its Tm is 55 °C.

For `CC[C@H](C)[C@H](NC(=O)[C@H](CC(C)C)NC(=O)[C@H](CCC(=O)O)NC(=O)[C@H](CCC(=O)O)NC(=O)[C@@H](NC(=O)[C@H](CC(C)C)NC(=O)[C@H](CO)NC(=O)[C@@H](NC(=O)[C@H](Cc1ccc(O)cc1)NC(C)=O)[C@@H](C)O)[C@@H](C)CC)C(=O)N[C@@H](CCCCN)C(=O)N[C@@H](CCCCN)C(=O)N[C@@H](CO)C(=O)N[C@@H](CCC(=O)O)C(=O)N[C@@H](CCC(=O)O)C(=O)N[C@@H](CCC(N)=O)C(=O)N[C@@H](CCC(N)=O)C(=O)N[C@@H](CCCCN)C(=O)N[C@@H](CCCCN)C(=O)N[C@@H](CC(N)=O)C(=O)N[C@@H](CCC(=O)O)C(=O)N[C@@H](CCC(=O)O)C(=O)N[C@@H](CCC(=O)O)C(=O)N[C@@H](CC(C)C)C(=O)N[C@@H](CCCCN)C(=O)N[C@@H](CCCCN)C(=O)N[C@@H](CC(C)C)C(=O)N[C@@H](CCC(=O)O)C(=O)N[C@@H](CCC(=O)O)C(=O)N[C@@H](Cc1c[nH]c2ccccc12)C(=O)N[C@@H](C)C(=O)N[C@@H](CCCCN)C(=O)N[C@@H](CCCCN)C(=O)N[C@@H](Cc1c[nH]c2ccccc12)C(=O)N[C@@H](CC(N)=O)C(=O)N[C@@H](Cc1c[nH]c2ccccc12)C(=O)N[C@@H](Cc1ccccc1)C(N)=O` (Ac-YTSLIEELIKKSEEQQKKNEEELKKLEEWAKKWNWF-NH2), which EC50 [5] is on record?
Its EC50 is 1.1 nM.

And the Activity [7]?
Its Activity is 8.2%.

And the Tm [8]?
Its Tm is 78.8 °C.

What about the Activity [9] of the same molecule?
The Activity was 9.3%.

What about the Activity [10] of the same molecule?
The Activity was 7.4%.

And the Tm [11]?
Its Tm is 60 °C.

What about the Tm [12] of the same molecule?
The Tm was 65.3 °C.
